Measurements published in ChEMBL document CHEMBL1201862, “PubChem BioAssay data set” (2004).
The source made the active and inactive calls.

Columns and labels:
[1] = Luminescence Cell-Based Dose Confirmation HTS to Identify Activators of 5'UTR Stem-Loop Driven Alpha-Synuclein mRNA Translation in H4 Neuroglioblastoma Cells. [Related pubchem assays: 1829 (Project Summary), 1814 (Primary HTS)]; format: functional
[2] = Luminescence Cell-Based Dose Response HTS to Identify Activators of Luciferase Translation or Activity in H4 […] Cells. [Related pubchem assays: 1829 (Project Summary), 1814 (Primary HTS)]; format: functional
[3] = test system: H4; test: Luminescence Cell-Based Dose Response HTS to Identify Activators of 5'UTR Stem-Loop Driven Prion Protein mRNA Translation in H4 Neuroglioblastoma Cells. [Related pubchem assays: 1829 (Project Summary), 1814 (Primary HTS)]; format: functional; settings: Homo sapiens
[4] = target: 26S proteasome non-ATPase regulatory subunit 14 (Homo sapiens, UniProt O00487); test: inhibition of proteasome subunit RPN11 – biochemical, fluorescence polarization, uHTS hits, confirmation (AID 602368); format: functional
[5] = target: 72 kDa type IV collagenase (Homo sapiens, UniProt P08253); test: Dose Response validation of uHTS RPN11 inhibitor hits using a MMP-2 Fluorescence assay.; format: functional
[6] = target: Prothrombin (Bos taurus, UniProt P00735); test: thrombin protease inhibitors – biochemical, fluorescence polarization, uHTS hits, dose response (AID 602369); format: functional
[7] = HIV-1 Vif–A3G interaction blockers – biochemical, TR-FRET, GST-Vif 1-94, biotin-A3G peptide, dose response retest, primary screen (AID 1117319); format: functional;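 note: TR-FRET signal of purified GST-Vif binding a biotinylated A3G peptide; inhibitors lower the FRET signal by blocking Vif and A3G binding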
[8] = target: T1, Apoptotic protease-activating factor 1 (Homo sapiens, UniProt O14727); format: functional
T1 sequence (O14727 whole entry): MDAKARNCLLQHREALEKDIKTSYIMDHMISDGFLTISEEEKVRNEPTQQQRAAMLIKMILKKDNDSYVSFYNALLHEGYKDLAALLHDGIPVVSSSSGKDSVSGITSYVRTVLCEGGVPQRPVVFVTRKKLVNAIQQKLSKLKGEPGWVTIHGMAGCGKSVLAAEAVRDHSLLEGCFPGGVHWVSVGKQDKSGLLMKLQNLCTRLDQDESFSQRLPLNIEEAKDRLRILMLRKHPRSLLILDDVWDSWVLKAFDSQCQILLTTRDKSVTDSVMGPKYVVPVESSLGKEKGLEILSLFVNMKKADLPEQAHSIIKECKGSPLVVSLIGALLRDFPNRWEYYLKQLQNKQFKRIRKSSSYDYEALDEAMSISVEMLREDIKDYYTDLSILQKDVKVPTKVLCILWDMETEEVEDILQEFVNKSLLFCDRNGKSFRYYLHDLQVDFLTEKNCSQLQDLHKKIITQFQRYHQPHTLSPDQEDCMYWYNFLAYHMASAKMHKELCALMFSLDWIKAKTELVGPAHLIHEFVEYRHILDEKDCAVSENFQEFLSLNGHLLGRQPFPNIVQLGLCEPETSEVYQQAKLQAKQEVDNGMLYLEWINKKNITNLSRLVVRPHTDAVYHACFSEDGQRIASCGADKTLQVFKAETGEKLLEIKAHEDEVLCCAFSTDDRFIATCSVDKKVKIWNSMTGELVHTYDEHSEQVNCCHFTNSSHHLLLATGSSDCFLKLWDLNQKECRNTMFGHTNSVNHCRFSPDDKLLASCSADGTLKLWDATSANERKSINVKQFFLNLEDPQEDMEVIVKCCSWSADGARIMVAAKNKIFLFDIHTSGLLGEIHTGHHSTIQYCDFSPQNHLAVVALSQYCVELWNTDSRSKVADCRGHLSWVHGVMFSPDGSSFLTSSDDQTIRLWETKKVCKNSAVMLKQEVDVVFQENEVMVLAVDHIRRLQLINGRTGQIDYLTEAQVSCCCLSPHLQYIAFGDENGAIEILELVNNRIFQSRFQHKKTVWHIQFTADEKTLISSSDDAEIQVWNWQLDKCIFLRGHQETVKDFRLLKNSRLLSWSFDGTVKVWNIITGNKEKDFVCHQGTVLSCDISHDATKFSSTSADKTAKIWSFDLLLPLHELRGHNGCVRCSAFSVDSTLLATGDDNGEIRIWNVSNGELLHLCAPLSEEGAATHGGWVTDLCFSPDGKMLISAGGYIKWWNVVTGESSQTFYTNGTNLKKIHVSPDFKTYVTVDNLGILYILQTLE

[9] = target: T2, DNA repair protein RAD52 homolog (Homo sapiens, UniProt P43351); format: functional, biochemical
T2 sequence (P43351 whole entry): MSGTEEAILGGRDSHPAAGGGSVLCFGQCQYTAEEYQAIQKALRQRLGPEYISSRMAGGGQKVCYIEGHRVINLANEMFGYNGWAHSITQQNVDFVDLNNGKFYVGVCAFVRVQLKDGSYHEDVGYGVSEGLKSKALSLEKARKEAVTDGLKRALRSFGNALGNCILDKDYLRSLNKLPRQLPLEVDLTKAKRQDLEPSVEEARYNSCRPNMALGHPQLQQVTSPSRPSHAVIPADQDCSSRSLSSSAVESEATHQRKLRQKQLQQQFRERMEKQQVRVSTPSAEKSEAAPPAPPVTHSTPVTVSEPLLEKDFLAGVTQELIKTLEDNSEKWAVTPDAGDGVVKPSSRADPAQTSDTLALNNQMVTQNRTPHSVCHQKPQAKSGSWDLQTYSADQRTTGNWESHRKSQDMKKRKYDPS

[10] = target: Paired box protein Pax-8 (Homo sapiens, UniProt Q06710); test: PAX8 transcriptional activity inhibition in RMG-I – RMG-I cells, luciferase, cherry-pick, dose response (AID 687027); format: functional, cell-based;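 note: luciferase reporter driven by Pax8 target thyroperoxidase promoter measured by SteadyGlo luminescence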
[11] = inhibitors acting on PAX2 in cells – cell-based, plate reader, dry powder samples, selectivity assay for PAX8 inhibitor project, dose response (AID 743048); format: functional;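 note: HEK293 cells carrying a WT1 promoter luciferase reporter driven by expressed Pax2; potency is for inhibition of Pax2 driven reporter signal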
[12] = OVCAR8 cell viability loss – plate reader, dry powder samples, PAX8 project, dose response (AID 743197); format: functional, cell-based; settings: OVCAR-8
[13] = PAX8-dependent cell viability loss – plate reader, dry powder, dose response (AID 743049); format: functional, cell-based
[14] = target: T3, Fatty acid synthase (Homo sapiens, UniProt P49327); test: inhibition of human FAS-TE enzyme activity – biochemical, endpoint fluorescence intensity, uHTS hits, dose response (AID 624327); format: functional;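 note: fluorescence from hydrolysis of an O-methyl fluorescein acyl ester substrate by the enzyme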
[15] = target: T3, Fatty acid synthase; test: inhibition of human FAS-TE enzyme activity – biochemical, kinetic fluorescence intensity, dose response (AID 624326); format: functional;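 note: rate of fluorescence rise from hydrolysis of a fluorogenic O-methyl fluorescein ester substrate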
[16] = target: T4, DNA repair and recombination protein RAD54-like (Homo sapiens, UniProt Q92698); test: RAD54 Holliday junction migration blockers – biochemical, fluorescence, cherry-picked samples, dose series, confirmation (AID 651657); format: functional
T4 sequence (Q92698 whole entry): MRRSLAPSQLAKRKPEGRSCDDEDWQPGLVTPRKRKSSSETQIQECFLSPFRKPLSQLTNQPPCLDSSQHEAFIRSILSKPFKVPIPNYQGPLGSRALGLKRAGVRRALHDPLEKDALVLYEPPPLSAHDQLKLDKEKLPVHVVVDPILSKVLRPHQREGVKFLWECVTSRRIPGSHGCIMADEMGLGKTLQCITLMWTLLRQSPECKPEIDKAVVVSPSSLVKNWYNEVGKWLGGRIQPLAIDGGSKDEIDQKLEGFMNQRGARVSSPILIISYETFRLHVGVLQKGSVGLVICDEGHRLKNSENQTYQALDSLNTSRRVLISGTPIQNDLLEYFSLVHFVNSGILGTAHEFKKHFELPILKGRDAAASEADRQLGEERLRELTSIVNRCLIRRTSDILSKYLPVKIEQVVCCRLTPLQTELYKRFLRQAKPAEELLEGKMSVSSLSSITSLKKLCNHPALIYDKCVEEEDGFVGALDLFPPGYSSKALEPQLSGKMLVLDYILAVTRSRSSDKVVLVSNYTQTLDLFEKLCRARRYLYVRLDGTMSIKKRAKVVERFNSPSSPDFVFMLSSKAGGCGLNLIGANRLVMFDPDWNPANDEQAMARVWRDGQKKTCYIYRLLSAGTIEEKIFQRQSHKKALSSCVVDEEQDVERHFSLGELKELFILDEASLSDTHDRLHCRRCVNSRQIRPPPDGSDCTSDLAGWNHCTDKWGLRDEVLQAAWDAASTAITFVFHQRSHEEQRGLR

[17] = target: T5, Leucine aminopeptidase (Plasmodium falciparum 3D7, UniProt Q8IL11); test: P. falciparum M17LAP inhibitors, primary screen, biochemical, fluorogenic H-Leu-NHMec substrate, 1536-well (AID 1619); format: functional
T5 sequence (Q8IL11 whole entry): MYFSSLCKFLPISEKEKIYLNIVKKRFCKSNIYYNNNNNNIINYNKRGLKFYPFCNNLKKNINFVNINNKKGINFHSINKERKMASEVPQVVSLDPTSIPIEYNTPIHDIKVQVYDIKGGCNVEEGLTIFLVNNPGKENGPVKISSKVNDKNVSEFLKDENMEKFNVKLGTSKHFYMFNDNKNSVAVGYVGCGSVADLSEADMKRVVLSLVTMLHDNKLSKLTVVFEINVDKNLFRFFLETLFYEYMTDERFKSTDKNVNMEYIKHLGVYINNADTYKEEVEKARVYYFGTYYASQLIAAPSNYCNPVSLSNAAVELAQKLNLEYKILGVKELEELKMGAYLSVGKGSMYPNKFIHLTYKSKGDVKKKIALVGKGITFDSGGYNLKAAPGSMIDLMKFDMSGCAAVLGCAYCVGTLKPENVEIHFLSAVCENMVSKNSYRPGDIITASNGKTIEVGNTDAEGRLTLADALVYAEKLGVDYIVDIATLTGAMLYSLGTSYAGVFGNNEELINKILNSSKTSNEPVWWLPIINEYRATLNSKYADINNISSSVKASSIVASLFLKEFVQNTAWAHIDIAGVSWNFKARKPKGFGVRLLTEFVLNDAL

[18] = test system: H9c2; test: cells; format: functional, cell-based; settings: Rattus norvegicus, H9c2, Myocardium;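 note: confirmatory concentration-response retest of ultra-high-throughput screening hits for modulation of myocardial damage; cell death induced by hydrogen peroxide oxidative stress; compound pretreatment for 60 min then peroxide exposure for 2 h; potency is for protecting the cells against peroxide damage rather than for killing them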
[19] = target: Heat shock protein HSP 90-alpha (Homo sapiens, UniProt P07900); format: functional, organism-based

Chain of 26S proteasome non-ATPase regulatory subunit 14 (O00487 whole entry): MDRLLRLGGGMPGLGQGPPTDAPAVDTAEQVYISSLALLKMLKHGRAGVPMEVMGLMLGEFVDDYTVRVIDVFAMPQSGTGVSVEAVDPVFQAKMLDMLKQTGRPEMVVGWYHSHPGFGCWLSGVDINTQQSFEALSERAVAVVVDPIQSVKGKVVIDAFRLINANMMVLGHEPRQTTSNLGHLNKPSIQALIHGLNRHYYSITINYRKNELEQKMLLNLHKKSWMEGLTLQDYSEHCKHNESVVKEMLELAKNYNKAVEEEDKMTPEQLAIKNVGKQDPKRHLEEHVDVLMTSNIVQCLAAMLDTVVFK
Chain of 72 kDa type IV collagenase (P08253 whole entry): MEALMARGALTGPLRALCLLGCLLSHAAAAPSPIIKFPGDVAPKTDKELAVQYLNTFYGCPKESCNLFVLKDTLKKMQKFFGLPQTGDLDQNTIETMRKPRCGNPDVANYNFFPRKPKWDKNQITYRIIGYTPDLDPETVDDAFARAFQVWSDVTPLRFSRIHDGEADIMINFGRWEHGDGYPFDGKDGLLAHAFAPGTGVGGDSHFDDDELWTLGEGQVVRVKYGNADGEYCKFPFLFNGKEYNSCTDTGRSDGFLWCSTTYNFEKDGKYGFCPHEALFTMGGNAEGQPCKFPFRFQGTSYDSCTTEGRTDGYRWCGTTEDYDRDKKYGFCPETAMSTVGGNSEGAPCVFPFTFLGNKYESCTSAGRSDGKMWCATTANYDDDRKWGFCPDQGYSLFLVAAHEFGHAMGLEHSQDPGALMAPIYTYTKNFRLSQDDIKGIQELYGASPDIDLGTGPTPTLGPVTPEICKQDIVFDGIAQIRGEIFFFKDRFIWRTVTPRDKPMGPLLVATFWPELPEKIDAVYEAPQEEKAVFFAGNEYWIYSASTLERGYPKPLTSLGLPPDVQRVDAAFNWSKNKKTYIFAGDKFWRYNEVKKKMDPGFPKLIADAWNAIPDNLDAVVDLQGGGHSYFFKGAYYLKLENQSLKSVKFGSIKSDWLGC
T3 sequence (P49327 whole entry): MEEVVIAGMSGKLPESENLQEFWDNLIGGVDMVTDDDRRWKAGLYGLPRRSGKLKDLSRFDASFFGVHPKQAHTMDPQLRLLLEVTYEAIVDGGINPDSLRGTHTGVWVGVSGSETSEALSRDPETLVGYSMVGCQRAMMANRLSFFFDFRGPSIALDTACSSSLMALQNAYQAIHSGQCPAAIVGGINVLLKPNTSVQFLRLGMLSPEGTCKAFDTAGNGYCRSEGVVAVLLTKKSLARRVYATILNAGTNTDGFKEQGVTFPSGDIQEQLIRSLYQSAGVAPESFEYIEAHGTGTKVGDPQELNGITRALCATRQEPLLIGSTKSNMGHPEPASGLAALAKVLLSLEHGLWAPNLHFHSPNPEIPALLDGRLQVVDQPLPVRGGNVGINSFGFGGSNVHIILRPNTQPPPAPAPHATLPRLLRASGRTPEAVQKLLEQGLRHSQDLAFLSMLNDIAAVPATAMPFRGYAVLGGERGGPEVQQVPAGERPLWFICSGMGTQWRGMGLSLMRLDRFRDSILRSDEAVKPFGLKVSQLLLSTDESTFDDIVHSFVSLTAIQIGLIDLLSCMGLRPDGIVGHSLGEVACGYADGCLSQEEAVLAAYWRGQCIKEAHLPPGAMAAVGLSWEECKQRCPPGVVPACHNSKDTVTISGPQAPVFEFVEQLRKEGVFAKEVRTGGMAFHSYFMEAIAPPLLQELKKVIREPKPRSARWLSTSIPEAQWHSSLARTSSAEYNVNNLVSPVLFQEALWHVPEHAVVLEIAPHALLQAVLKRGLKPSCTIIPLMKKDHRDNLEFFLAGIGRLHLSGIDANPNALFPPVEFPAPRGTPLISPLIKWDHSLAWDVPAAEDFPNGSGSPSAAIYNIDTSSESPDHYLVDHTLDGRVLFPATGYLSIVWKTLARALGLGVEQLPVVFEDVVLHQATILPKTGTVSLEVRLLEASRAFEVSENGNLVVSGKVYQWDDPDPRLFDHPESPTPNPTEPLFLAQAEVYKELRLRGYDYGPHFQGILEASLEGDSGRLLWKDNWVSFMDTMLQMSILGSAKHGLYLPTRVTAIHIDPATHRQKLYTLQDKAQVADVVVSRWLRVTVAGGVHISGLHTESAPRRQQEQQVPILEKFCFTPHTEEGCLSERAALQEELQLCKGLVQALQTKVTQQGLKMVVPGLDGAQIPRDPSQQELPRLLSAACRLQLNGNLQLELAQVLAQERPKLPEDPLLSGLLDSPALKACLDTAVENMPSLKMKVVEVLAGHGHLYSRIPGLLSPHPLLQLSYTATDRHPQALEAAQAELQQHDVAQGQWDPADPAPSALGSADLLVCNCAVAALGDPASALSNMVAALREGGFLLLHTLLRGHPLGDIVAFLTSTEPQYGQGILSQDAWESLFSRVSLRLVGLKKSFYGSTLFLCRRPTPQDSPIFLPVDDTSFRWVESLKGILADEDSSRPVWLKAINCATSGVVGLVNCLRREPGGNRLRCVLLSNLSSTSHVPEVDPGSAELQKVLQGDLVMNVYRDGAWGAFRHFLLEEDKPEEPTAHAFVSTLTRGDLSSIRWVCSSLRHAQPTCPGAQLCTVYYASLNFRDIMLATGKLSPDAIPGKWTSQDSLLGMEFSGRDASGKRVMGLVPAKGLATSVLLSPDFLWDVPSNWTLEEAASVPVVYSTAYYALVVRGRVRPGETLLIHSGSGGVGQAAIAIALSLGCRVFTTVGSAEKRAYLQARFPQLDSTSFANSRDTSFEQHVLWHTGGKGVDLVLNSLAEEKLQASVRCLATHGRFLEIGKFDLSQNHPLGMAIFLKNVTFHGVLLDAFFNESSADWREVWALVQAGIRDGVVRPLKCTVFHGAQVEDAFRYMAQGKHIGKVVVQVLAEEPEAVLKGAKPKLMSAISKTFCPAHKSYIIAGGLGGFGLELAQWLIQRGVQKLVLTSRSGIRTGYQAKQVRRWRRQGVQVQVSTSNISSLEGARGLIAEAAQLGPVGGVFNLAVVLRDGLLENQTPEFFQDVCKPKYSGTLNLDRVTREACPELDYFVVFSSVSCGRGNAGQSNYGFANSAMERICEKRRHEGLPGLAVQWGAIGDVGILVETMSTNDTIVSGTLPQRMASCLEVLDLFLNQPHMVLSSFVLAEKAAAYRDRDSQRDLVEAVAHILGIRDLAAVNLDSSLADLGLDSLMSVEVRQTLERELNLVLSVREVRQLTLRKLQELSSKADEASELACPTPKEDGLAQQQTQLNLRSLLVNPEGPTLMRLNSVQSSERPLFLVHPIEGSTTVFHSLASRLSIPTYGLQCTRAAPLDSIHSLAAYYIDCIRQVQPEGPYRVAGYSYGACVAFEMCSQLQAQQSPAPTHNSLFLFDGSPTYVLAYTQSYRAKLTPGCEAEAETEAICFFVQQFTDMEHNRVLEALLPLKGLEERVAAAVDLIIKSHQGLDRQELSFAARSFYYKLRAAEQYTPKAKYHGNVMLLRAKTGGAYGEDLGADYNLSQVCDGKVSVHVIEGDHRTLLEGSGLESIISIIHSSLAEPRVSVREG
Chain of Paired box protein Pax-8 (Q06710 whole entry): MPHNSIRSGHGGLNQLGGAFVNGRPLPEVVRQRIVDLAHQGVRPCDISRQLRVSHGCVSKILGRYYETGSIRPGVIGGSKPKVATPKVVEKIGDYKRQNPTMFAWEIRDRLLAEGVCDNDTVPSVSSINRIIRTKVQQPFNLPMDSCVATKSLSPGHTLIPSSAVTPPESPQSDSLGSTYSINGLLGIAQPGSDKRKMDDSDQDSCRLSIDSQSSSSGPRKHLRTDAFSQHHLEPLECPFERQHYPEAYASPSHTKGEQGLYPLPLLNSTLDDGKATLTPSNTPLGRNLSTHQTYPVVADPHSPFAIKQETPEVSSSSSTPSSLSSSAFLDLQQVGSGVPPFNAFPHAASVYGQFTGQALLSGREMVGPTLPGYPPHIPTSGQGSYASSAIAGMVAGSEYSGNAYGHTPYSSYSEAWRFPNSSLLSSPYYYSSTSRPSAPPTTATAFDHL

With `CCOc1ccc2nc(NC(=O)Cn3[nH]c(=O)c4ccccc4c3=O)sc2c1` the EC50 [1] was > 120 µM (not active), the EC50 [2] was 5.14 µM (active) and the EC50 [3] was 54.3 µM (active). The IC50 [4] was 39.7 µM (active), the IC50 [5] was > 100 µM (inactive) and the IC50 [6] was 90.4 µM (active).

For `CCc1nc2oc3ccccc3c(=O)c2c(=O)n1-c1ccc(C)cc1`, the IC50 [4] was 24.5 µM (active), the IC50 [5] was > 100 µM (inactive) and the IC50 [6] was 87.5 µM (active).

With `COc1ccc(NCc2nnc(SCC(=O)N3CCCc4ccccc43)o2)cc1` the IC50 [7] was > 100 µM (active).

With `CCOC(=O)c1c(CN(C)C)n(C)c2c(O)c(N=NC(N)=O)c3ccc(Br)cc3c12` the IC50 [8] was 12.1 µM (active) and the AC50 [9] was 11.6 µM (active).

In the case of `COc1ccc(S(=O)(=O)Nc2ccc3c(c2)CC(=O)N([C@@H](C)CO)C[C@@H](C)[C@@H](CN(C)Cc2ccc(-c4ccccc4)cc2)O3)cc1`, the AC50 [10] is reported as 24.6 µM (active), the AC50 [11] is reported as 42 µM (active) and the AC50 [12] is reported as > 70 µM (inactive). For the same compound, the AC50 [13] was 44.2 µM (active).

For `Cc1csc(N2CCN(c3cc4c(cc3Cl)nc(-c3ccncc3)n4CCCN3CCCC3)CC2)n1`, the AC50 [9] was 4.61 µM (active).

In the case of `CCc1nc2c(OCc3ccc(Cl)cc3Cl)cccn2c1N(C=O)Cc1ccc(OC)cc1`, the IC50 [14] is reported as 2.45 µM (active) and the IC50 [15] is reported as 1.46 µM (active).

With `O=C(NCCCN1CCOCC1)c1cnn2c(-c3ccccc3)cc(-c3ccccc3)nc12` the AC50 [16] was 27 µM (active).

In the case of `CCc1cc2c(=O)n(-c3ccc(C)cc3)cnc2s1`, the IC50 [7] is reported as > 100 µM (active).

With `Cc1ccc(C(=O)NCC(=O)OCc2nnc(-c3ccc([N+](=O)[O-])cc3)o2)s1` the IC50 [14] was 15.1 µM (active) and the IC50 [15] was 12.7 µM (active).

For `COc1ccc(NC(=O)CSC2CC(=O)N(c3ccc4c(c3)OCCO4)C2=O)cc1` (stereo not drawn), the IC50 [17] was 16.1 µM (active).

For `CN(C)CCCNc1nc2cc(-c3ccc(C(=O)N4CCN(C)CC4)cc3)sc2c(=O)n1C`, the AC50 [16] was 47.7 µM (active).

In the case of `NC(=O)c1c(NC(=S)Nc2ccc(F)cc2)sc2c1CCCC2`, the IC50 [17] is reported as 92 µM (active).

With `CCN(CC)CCCN(C(=O)c1ccc(Br)cc1)c1nc(-c2ccc(OC)cc2)cs1` the AC50 [9] was 17.2 µM (active).

In the case of `CCN(Cc1ccccc1)C(=O)c1cnc2ccc(S(=O)(=O)N(C)CCC#N)cc2c1O`, the IC50 [14] is reported as 12 µM (active) and the IC50 [15] is reported as 7.6 µM (active).

In the case of `COc1ccc(CCn2c(=N)c(C(=O)NCC3CCCO3)cc3c(=O)n4cccc(C)c4nc32)cc1OC` (stereo not drawn), the IC50 [18] is reported as > 79 µM (inactive) and the AC50 [16] is reported as 14.4 µM (active).

With `COC(=O)c1c(NC(=O)C2C3CCC(O3)C2C(=O)O)sc2c1CCCCCC2` (stereo not drawn) the IC50 [17] was 48.9 µM (active).

For `CCN1C(=O)N(CC)C(=O)C2(Cc3ccccc3N3CCN(c4ccccc4)CC32)C1=O` (stereo not drawn), the IC50 [7] was > 100 µM (active).

In the case of `Cc1cc(N=Nc2ccccc2C(=O)O)c(C)c(C)c1O`, the AC50 [19] is reported as 4.36 µM (active), the IC50 [4] is reported as 25.4 µM (active) and the IC50 [5] is reported as 43.4 µM (active). For the same compound, the IC50 [6] was 34.2 µM (active).

In the case of `CC1(C)Oc2ccc(C(=O)NC3CCCC3)cc2N(CC(=O)N2CCOCC2)C1=O`, the IC50 [7] is reported as > 100 µM (active).

In the case of `O=C(NCCCCc1ccccc1)c1cccc([N+](=O)[O-])c1`, the IC50 [14] is reported as 11.1 µM (active) and the IC50 [15] is reported as 8.43 µM (active).

In the case of `O=C(CSc1nnc[nH]1)Nc1ccc(Br)cc1F`, the IC50 [17] is reported as 29.8 µM (active).

In the case of `COc1ccc(-c2nc3nc(C)c(Cc4ccccc4)c(O)n3n2)cc1`, the IC50 [8] is reported as 30.6 µM (active).

For `CC1(C)CCN(Cc2ccccc2)C1CC#N` (stereo not drawn), the IC50 [7] was > 100 µM (active).
